Molecules are shown by their SMILES.

This data set in a line: gradient 5% acetonitrile 3 min, to 50% in 2 min, to 85% in 15 min, held 3 min, 100 µL/min. The following applies: column: Zorbax Extend-C18 2.1 x 50 mm; eluents: water / acetonitrile, 0.1% formic acid. An outline of the steps:
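Retention times come from adduct peaks that were picked computationally and then checked by hand. The standards, pure and pooled in mixtures of ~100 molecules, were run on a Zorbax Extend-C18 column (2.1 × 50 mm, 1.8 μm) at 100 μL/min with water and acetonitrile, each with 0.1% formic acid. Detection was by quadrupole time-of-flight mass spectrometry in positive and negative ionization mode, with a dead volume of 40 μL and a dwell volume of 900 μL.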
Take `CNC(=O)Oc1ccc(N(C)C)cc1C(C)C`: the RP-LC retention time turned out to be 642 s.
Then `Cc1ccccc1CNC(=O)C1(C)CCCN(C(=O)NC2CCCCC2)C1` (stereo unspecified), with 904 s; and `Cc1ccc(-c2noc(C3CCCN3C(=O)c3ccc4c(c3)OCO4)n2)cc1` (stereo unspecified), with 1000 s; and `Cc1nc(-c2noc(-c3cccc(F)c3)n2)cn1CC(=O)Nc1ccccc1`, with 856 s.
For `Cc1ccc(NC(=O)Nc2ccc3nc(N4CCN(C)CC4)cc(C)c3c2)cc1C`, the RP-LC retention time came to 614 s.
In turn, `COC(=O)C(C)NC(=O)NCc1cccn1Cc1ccc(F)cc1` (stereo unspecified) came in with an RP-LC retention time of 814 s.
With `O=C(c1ccoc1)N1CCC(N2CCc3ccccc32)CC1` the figure was 830 s; with `O=C1CC(/C=C/c2ccccc2)Cc2nc(N3CCN(c4ncccn4)CC3)ncc21` (stereo unspecified), 1130 s.
As for `CCc1nnc2nc(N3CCN(C(=O)c4cccc(N(C)C)c4)CC3)cc(C)n12`, the RP-LC retention time was 574 s.
With `COc1ccc(-c2noc(Cn3c(=O)n(CC4CCCO4)c(=O)c4ccccc43)n2)cc1OC` (stereo unspecified) the figure was 828 s; with `Cn1c(=O)c2c(nc3n(-c4ccc(O)cc4)c(-c4ccc(Cl)cc4)cn23)n(C)c1=O`, 813 s.
Regarding `Cc1nc2cc3c(cc2n1CC(=O)NCCOc1ccc(Cl)cc1)OCCO3`, the RP-LC retention time came to 674 s.
Then `CCN1C(=O)Cc2cc(C(=O)NCc3ccccc3)ccc21`, with 706 s.
With `Cc1nn(-c2ccc(N3CCOCC3)nn2)c(C)c1CCC(=O)NCc1ccco1` the figure was 633 s; with `O=C(NCC1(c2cccs2)CCOCC1)C(=O)Nc1cccnc1`, 600 s.
Then `CC(C)n1nnc2ccc(-c3noc(CNC(=O)c4ccccc4)n3)cc21`, with 825 s; and `Cc1cc(C(=O)Nc2ccc(-c3nc(Cn4cccn4)c(C)o3)cc2)no1`, with 823 s; and `CCS(=O)(=O)N1CC(=O)N(c2ccc(F)cc2C)C(C)(C(=O)NC2CCCCCC2)C1` (stereo unspecified), with 925 s.
Take `O=C(NCc1ccccc1Br)c1cn2ccccc2n1`: the RP-LC retention time worked out at 736 s.
Consider `Cc1ccc(-n2c(=O)c3sccc3n(Cc3nc(-c4cccc(C)c4)no3)c2=O)cc1`, for which the RP-LC retention time was determined as 1060 s.
With `CCN1CCN(c2cc(C)c3cc(NC(=O)/C=C/c4ccc(OCCC(C)C)cc4)ccc3n2)CC1` the figure was 747 s; with `Cc1cnc(-c2ccncc2)n1C1CCN(S(=O)(=O)c2ccc3c(c2)CCC3)C1` (stereo unspecified), 605 s.
As for `Cn1nc(C2CCN(S(=O)(=O)Cc3cccc(Cl)c3)CC2)n(C2CCCC2)c1=O`, the RP-LC retention time was 888 s.
`COc1ccc(OC)c(S(=O)(=O)N2CCc3nc(-c4ccccc4)[nH]c3C2)c1` showed an RP-LC retention time of 536 s.
`Cc1onc(-c2ccccc2Cl)c1C(=O)NC1CC(=O)N(C2CC2)C1` (stereo unspecified) yielded an RP-LC retention time of 636 s.
`Cc1ncc2c(n1)C[C@@H]1CC[C@H]2N1C(=O)c1ccc2c(c1)OCO2` showed an RP-LC retention time of 639 s.
Regarding `CC(C)c1ccc(C(O)Cn2ccn3nc(-c4ccc(F)cc4)cc3c2=O)cc1` (stereo unspecified), the RP-LC retention time came to 1110 s.
Then `O=C(O)C1(c2cc(-c3ccccc3)on2)CC1`, with 736 s; and `CCOC(=O)C1CCN(c2ncnc3c2cnn3-c2ccccc2)CC1`, with 944 s; and `O=C(C1CCN(c2nnc(-c3ccccc3)o2)CC1)N1CCC2(CC1)OCCO2`, with 701 s.
Molecule `CCN1C(=O)c2ccccc2Oc2ccc(C(=O)NCc3cccs3)cc21` showed an RP-LC retention time of 911 s.
With `Cc1ccc(CN2C(=O)CN(S(C)(=O)=O)CC2(C)C(=O)NC2CCCCCCC2)cc1` (stereo unspecified) the figure was 930 s; with `Cc1ccc(CN2CCC(CNC(=O)c3cc(=O)n(C)c4c3c(=O)n(C)c(=O)n4C)CC2)cc1`, 625 s.
Then `COc1ccccc1CC(=O)Nc1cnc(C)nc1`, with 664 s.
Then `Cc1ccc(N2CCN(CC(O)c3ccc4c(c3)OCO4)CC2)cc1` (stereo unspecified), with 665 s; and `O=C(NCc1ccc2c(c1)OCO2)C1=CCN(Cc2ccccc2)CC1`, with 607 s.
`CCN(CC)CCn1c(C)c(C)c2c1ncn1nc(-c3cccnc3)nc21` returned an RP-LC retention time of 590 s.
The molecule `CCOC(=O)c1nc(NCCN(C)Cc2ccccc2)c2c(C)noc2n1` registered an RP-LC retention time of 623 s.
As to `COc1ccc(-c2c(C)noc2NC(C)=O)cc1S(=O)(=O)NCCC1=CCCCC1`, the RP-LC retention time worked out at 886 s.
With `Cc1ccc(C)c(Sc2ccc(N3CCC(C(=O)NC4CC4)CC3)nn2)c1` the figure was 713 s.
Molecule `CN(C)CCn1nnc2cc(-c3noc(-c4ccccc4)n3)ccc21` displayed an RP-LC retention time of 651 s.
Turning to `CCc1nc(-c2csc(S(=O)(=O)N3CCC(C(=O)N4CCc5ccccc5C4)CC3)c2)no1`, the RP-LC retention time was found to be 1020 s.
The molecule `NC(=O)Cn1c2ccccc2c2ncn(Cc3nc(-c4ccccc4)no3)c(=O)c21` showed an RP-LC retention time of 730 s.
Then `COC(=O)c1cc(OCC(=O)Nc2ccc3c(c2)OCCO3)c2cc(Cl)ccc2n1`, with 851 s; and `Cc1ccc(CNC(=O)C2CCN(S(C)(=O)=O)c3cc(C)ccc3O2)cc1` (stereo unspecified), with 912 s; and `CCC(=O)N1CC(=O)N(CC)C2(CCOCC2)C1`, with 561 s.
Then `Cc1cccc(CNc2cc(-n3ccnc3)ncn2)c1`, with 656 s; and `Cc1cc(C)n2nc(SCC(=O)NCCc3ccc(Cl)cc3)nc2n1`, with 719 s.
Consider `CC(=O)Nc1ccc(C(=O)N2CCC3(CC2)N=C(c2ccccc2)NO3)cc1`, for which the RP-LC retention time was 664 s.
Regarding `CC(C)=C1SC(N2CCN(c3cccc(C(F)(F)F)c3)CC2)=NC1=O`, the RP-LC retention time came to 922 s.
`O=C(Nc1nnc(Cc2ccccc2)s1)C1CCN(C(=O)c2ccccc2)CC1` yielded an RP-LC retention time of 767 s.
`Cc1ccccc1NC(=O)CN1C(=O)CCc2cc(S(=O)(=O)N3CCCCC3C)ccc21` (stereo unspecified) returned an RP-LC retention time of 896 s.
With `CCOC(=O)CSc1nnc(CNC(=O)c2cc(OC)c(OC)c(OC)c2)n1C` the figure was 601 s.
Then `CCOC(=O)C1CCN(S(=O)(=O)c2cccc3nsnc23)CC1`, with 810 s; and `CCN1CCCC1CNC(=O)CCc1cc2cc(C)ccc2[nH]c1=O` (stereo unspecified), with 588 s.
With `O=S(=O)(NCc1cccnc1-c1ccc(F)cc1)c1ccc(F)cc1` the figure was 737 s.
With `CCn1cnc(S(=O)(=O)N2CCC(C(=O)Nc3ccc(OC)c(Cl)c3)CC2)c1`, the RP-LC retention time turned out to be 724 s.
`Nc1ncnc(N2CCN(c3ccc(Cl)c(Cl)c3)CC2)c1[N+](=O)[O-]` registered an RP-LC retention time of 909 s.
The molecule `Cc1cncn(CC(=O)NC2CCCC2)c1=O` returned an RP-LC retention time of 576 s.
On to `CCn1c(C(=O)N2CCN(c3ncccn3)CC2)cc2cc(S(=O)(=O)N(C)C)ccc21`, for which the RP-LC retention time came out at 830 s.
With `Cc1ccc2c(c1)OCC(=O)N2Cc1nc(-c2ccc(Cl)c(F)c2)no1` the figure was 1190 s; with `COc1ccc(CNC(=O)NCc2nnnn2-c2ccc(F)c(F)c2)cc1OC`, 678 s.
Turning to `Cn1cc(C=O)c2nccnc21`, the RP-LC retention time was determined as 631 s.
`CSc1ccc(-c2nc3cnccn3c2Nc2ccc(C(=O)N3CCOCC3)cc2)cc1` returned an RP-LC retention time of 708 s.
Then `O=C(NCc1ccc2c(c1)OCO2)C1CCCN(c2ccnc(-c3ccc(F)cc3)n2)C1` (stereo unspecified), with 660 s; and `Cc1ccc(-c2cc3c4nnc(CCC(=O)NC5CCCCCC5)n4ccn3n2)cc1C`, with 587 s.
With `Cc1cc2[nH]c(C(=O)Nc3cc(F)ccc3C)c(CN3CCOCC3)c2s1` the figure was 678 s; with `COc1ccc(Cc2nnc(N)o2)cc1`, 596 s; with `COc1ccccc1CCC(=O)N1CCn2cnnc2C1`, 594 s.
Then `CNC(=O)c1cccc(C(=O)N(C)c2ccccc2)n1`, with 662 s; and `Cc1ccc(-c2cc3c4nn(CC(=O)NC5CCCC5)c(=O)n4ccn3n2)cc1C`, with 918 s.
Molecule `COc1ccccc1CNS(=O)(=O)c1cc(-c2cc(C(F)(F)F)on2)sc1C` showed an RP-LC retention time of 1120 s.
In turn, `CN(C)C(=O)c1ccc2c(c1)nc(CN1CCN(C(=O)c3cccs3)CC1)n2C` gave an RP-LC retention time of 588 s.
Then `CCCN1C(=O)COc2ccc(-c3csc(NC(=O)CC)n3)cc21`, with 861 s.
As to `COc1ccc(S(=O)(=O)N2CCC(c3nc(C(=O)N(C)C)c(C)o3)CC2)cc1Cl`, the RP-LC retention time turned out to be 806 s.
Then `FC1(F)CN[C@H](c2nc(-c3ccncc3)no2)C1`, with 614 s; and `O=C(NCc1ccc2c(c1)OCO2)C1CCN(C(=O)c2cc(-c3cccnc3)n[nH]2)CC1`, with 656 s; and `CCOc1ccc(-n2c(=O)c3sccc3n(Cc3nc(-c4cccc(C)c4)no3)c2=O)cc1`, with 1100 s.
`c1ccc(-c2nc(-c3cccc(-c4ccn[nH]4)c3)no2)cc1` came in with an RP-LC retention time of 966 s.
With `Cc1[nH]c2ccccc2c1C(=O)C(=O)NC(C)c1ccccc1` (stereo unspecified) the figure was 794 s; with `COc1ccc(N2CCN(c3nccc4ccc(C(=O)NC5CCCCC5)cc34)CC2)cc1`, 771 s.

(Values after the METLIN SMRT retention time set (Domingo-Almenara et al. 2019).)
